In patent US12351595B2, “Composition comprising O-cyclic phytosphingosine-1-phosphate for preventing or treating Parkinson's disease” (AXCESO BIOPHARMA CO., LTD., priority 2019, dated 2025):

Assays:
[1] = system: SH-SY5Y cells; assay: MPP+-treated Parkinson's disease cell model, cell survival (MTT assay); assay type: cell-based, human
Procedure: To prepare a Parkinson's disease cell model by inducing oxidative stress with MPP^+ (1-methyl-4-phenylpyridinium iodide, Sigma), MPP^+ was dissolved in a phosphate buffer solution, diluted to a final concentration of 3 mM, and added to a nerve cell culture medium. To confirm the efficacy of the cP1P drug in the MPP^+ environment, SH-SY5Y cells were pretreated with cP1P drug at concentrations of 10 nM, 100 nM, and 1000 nM, respectively, for 1 hour, and then exposed to oxidative stress by treatment with 3 mM MPP^+ for 24 hours. The efficacy of the cP1P drug on the survival of SH-SY5Y cells after 24 hours of exposure to oxidative stress was determined by MTT assay.

[2] = system: SH-SY5Y nerve cells; assay: Rotenone-treated Parkinson's disease cell model, necrotic cell death (LDH detection kit); assay type: cell-based, human
Procedure: Rotenone is a substance widely used in cell models to induce Parkinson's disease. It is well known that when a nerve cell is treated with rotenone, mitochondrial function is destroyed, and oxidative stress is induced to cause death of the nerve cell.
The SH-SY5Y nerve cell culture medium was treated with cP1P drug at concentrations of 100 nM and 1000 nM, respectively, and cultured for 24 hours. Then, rotenone (Sigma) was dissolved in DMSO, diluted to a final concentration of 2 μM, and added to the SH-SY5Y nerve cell culture medium. The SH-SY5Y nerve cells were cultured for an additional 24 hours. SH-SY5Y nerve cells were obtained and cultured in the same manner as in Example 1.
Necrotic cell death was measured for the cultured SH-SY5Y nerve cells using a lactate dehydrogenase (LDH) detection kit (BioVision).
For comparison, the necrotic cell death was also measured for the control group that was treated only with DMSO without cP1P drug and rotenone, and the control group that was treated only with diluted rotenone solution without cP1P drug. In addition, the necrotic cell death was measured for the treatment of the nerve cells with the cP1P drug at concentrations of 100 nM and 1000 nM, respectively.

[3] = system: SH-SY5Y human nerve cell line; assay: Proliferation of SH-SY5Y human nerve cells (MTT assay); assay type: cell-based; details: 48 hours
Procedure: The SH-SY5Y human nerve cell line purchased from ATCC was used as a nerve cell line to evaluate the effect of the cP1P drug on the proliferation of dopaminergic human nerve cells. Dulbeco's Modified Eagle's Media/high glucose (with 10% FBS, 0.5% P/S) was used as a medium for culturing nerve cells, and the nerve cells were cultured at 37° C. in 5% CO2 incubator.
In order to observe the effect of cP1P drug on the proliferation of the dopaminergic human nerve cells, SH-SY5Y cells were treated with cP1P drug at concentrations of 10 nM, 100 nM and 1000 nM, respectively, and cultured for 48 hours. MTT assay (Molecular Probes) was performed according to the manufacturer's method to measure the cell proliferation rate.

[4] = system: Tyrosine hydroxylase (TH); assay: Tyrosine hydroxylase (TH) expression in SH-SY5Y nerve cells (immunohistochemistry and western blot); assay type: cell-based, human; details: 24 hours
Procedure: Tyrosine hydroxylase (TH) is an enzyme that converts amino acid tyrosine into L-DOPA, a precursor of dopamine, and plays an important role in the formation of dopamine in nerve cells.
In order to confirm the efficacy of the cP1P drug on TH expression in SH-SY5Y nerve cells, SH-SY5Y nerve cell culture was treated with the cP1P drug at concentrations of 10 nM and 100 nM, respectively. TH expression was determined by immunohistochemistry and western blot after 24 hours.

**Q.** With `C[n+]1ccc(-c2ccccc2)cc1.[I-]` [MPP^+, 1-methyl-4-phenylpyridinium iodide, reference compound] as the compound, how does the nerve cell death ([1]; MPP+ 3 mM only, 24 hours) read?
**A.** Its nerve cell death is “the nerve cells were killed”.

**Q.** Which “degree of nerve cell death” value ([2]; rotenone 2 μM only, 24 hours) does the source give for `C=C(C)[C@H]1Cc2c(ccc3c2O[C@@H]2COc4cc(OC)c(OC)cc4[C@@H]2C3=O)O1` [rotenone, reference compound] here?
**A.** The value was “exceed 30%”.

**Q.** Which “effect on the proliferation of SH-SY5Y cells” value ([3]; 10 nM) does the source give for `CCCCCCCCCCCCCC[C@@H](O)[C@H]1OP(=O)(O)OC[C@@H]1N` [cP1P, O-cyclic phytosphingosine-1-phosphate] here?
**A.** The value was “effect on the proliferation of SH-SY5Y cells appeared”.

**Q.** And the “effect on the nerve cell proliferation” value ([3]; 100 nM (of 10, 100, 1000 nM))?
**A.** Its value is “highest”.

**Q.** What about the “degree of cell death” value ([2]; cP1P 100 nM and 1000 nM alone, without rotenone) of the same compound?
**A.** The value was “reduced the degree of cell death compared to the control group treated only with DMSO”.

**Q.** What about the nerve cell death ([2]; cP1P 100 nM and 1000 nM for 24 hours, then rotenone 2 μM for 24 hours) of the same compound?
**A.** Its nerve cell death is “inhibited to the level equivalent to that of DMSO treatment without rotenone”.

**Q.** What about the nerve cell death ([1]; cP1P 100 nM pretreatment 1 hour, then 3 mM MPP+ 24 hours) of the same compound?
**A.** The nerve cell death was “significantly reduced”.

**Q.** What about the nerve cell death ([1]; cP1P pretreatment (10, 100, 1000 nM) 1 hour, then 3 mM MPP+ 24 hours) of the same compound?
**A.** The nerve cell death was “significantly reduced”.

**Q.** What about the “expression of the TH enzyme” value ([4]; 10 nM) of the same compound?
**A.** Its value is “increased”.

**Q.** What about the “expression of the TH enzyme” value ([4]; 100 nM) of the same compound?
**A.** Its value is “increased”.
